Laboratory results as given in paper PMC4420518 (Protein Science : A Publication of the Protein Society, 2015).

Legend:
[1] = test system: TpsB4-P1 (TpsB4 POTRA1 domain); test: 1H-15N HSQC NMR titration of 15N-labelled TpsB4-P1 with peptides; format: binding, P. aeruginosa
[2] = target: TpsB4 POTRA1 domain (TpsB4-P1; residues 42-121) (P. aeruginosa); test: NMR titration

| Substance | binding to 15N-labelled TpsB4-P1 (CSPs in 1H-15N HSQC) ([1]; 200 μM TpsB4-P1, synthetic peptides, free N- and C-termini) | exchange regime of interaction with TpsB4 POTRA1 ([1]; NMR timescale) | Kd [2] [µM] |
| --- | --- | --- | --- |
| QVFLVNPNGVLFGRGAQ [CupB5^80–96] | interacts with TpsB4‐P1 with a virtually identical pattern of CSPs | fast exchange | – |
| TpsA4^79-95 peptide | – | – | 1490 |
